Laboratory results published in the supplement of paper PMC10307832.

Columns and labels:
Experiment in all cases: relative viability (nuclei count vs DMSO), 5 days (fraction); higher = more cells survive
Avagacestat + Pemetrexed = compound: NC(=O)[C@@H](CCC(F)(F)F)N(Cc1ccc(-c2ncon2)cc1F)S(=O)(=O)c1ccc(Cl)cc1 [Avagacestat] + Nc1nc2[nH]cc(CCc3ccc(C(=O)N[C@@H](CCC(=O)O)C(=O)O)cc3)c2c(=O)[nH]1 [Pemetrexed] (partner 0.2 µM)
Procedure, shortened: (§1)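 Lung cancer cell lines in 1536-well plates got either a single drug or a fixed anchor-drug dose together with five library-drug doses (not always all listed) in √10 steps, by pin tool, on the day after seeding. Nuclei were counted after 5 days, and relative viability is the treated-to-vehicle ratio of nuclei counts. Values are medians of duplicate plates.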

Avagacestat + Olaparib = compound: NC(=O)[C@@H](CCC(F)(F)F)N(Cc1ccc(-c2ncon2)cc1F)S(=O)(=O)c1ccc(Cl)cc1 [Avagacestat] + O=C(c1cc(Cc2n[nH]c(=O)c3ccccc23)ccc1F)N1CCN(C(=O)C2CC2)CC1 [Olaparib] (partner 8 µM)
Procedure, shortened: as §1

Avagacestat + Alpelisib = compound: NC(=O)[C@@H](CCC(F)(F)F)N(Cc1ccc(-c2ncon2)cc1F)S(=O)(=O)c1ccc(Cl)cc1 [Avagacestat] + Cc1nc(NC(=O)N2CCC[C@H]2C(N)=O)sc1-c1ccnc(C(C)(C)C(F)(F)F)c1 [Alpelisib] (partner 2 µM)
Procedure, shortened: as §1

Avagacestat + Foretinib = compound: NC(=O)[C@@H](CCC(F)(F)F)N(Cc1ccc(-c2ncon2)cc1F)S(=O)(=O)c1ccc(Cl)cc1 [Avagacestat] + COc1cc2c(Oc3ccc(NC(=O)C4(C(=O)Nc5ccc(F)cc5)CC4)cc3F)ccnc2cc1OCCCN1CCOCC1 [Foretinib] (partner 0.25 µM)
Procedure, shortened: as §1

Cell Line	relative viability (Avagacestat + Pemetrexed; first compound 0.08 µM)	relative viability (Avagacestat + Pemetrexed; first compound 0.253 µM)	relative viability (Avagacestat + Pemetrexed; first compound 0.8 µM)	relative viability (Avagacestat + Pemetrexed; first compound 2.53 µM)	relative viability (Avagacestat + Pemetrexed; first compound 8 µM)	relative viability (Avagacestat + Olaparib; first compound 0.08 µM)	relative viability (Avagacestat + Olaparib; first compound 0.253 µM)	relative viability (Avagacestat + Olaparib; first compound 0.8 µM)	relative viability (Avagacestat + Olaparib; first compound 2.53 µM)	relative viability (Avagacestat + Olaparib; first compound 8 µM)	relative viability (Avagacestat + Alpelisib; first compound 0.08 µM)	relative viability (Avagacestat + Alpelisib; first compound 0.253 µM)	relative viability (Avagacestat + Alpelisib; first compound 0.8 µM)	relative viability (Avagacestat + Alpelisib; first compound 2.53 µM)	relative viability (Avagacestat + Alpelisib; first compound 8 µM)	relative viability (Avagacestat + Foretinib; first compound 0.08 µM)	relative viability (Avagacestat + Foretinib; first compound 0.253 µM)	relative viability (Avagacestat + Foretinib; first compound 0.8 µM)	relative viability (Avagacestat + Foretinib; first compound 2.53 µM)	relative viability (Avagacestat + Foretinib; first compound 8 µM)
COR-L23	0.178	0.197	0.207	0.214	0.201	0.326	0.3	0.339	0.308	0.284	0.982	1.01	0.788	0.743	0.568	1.12	1.28	1.1	0.901	0.952
NCI-H1651	0.71	0.591	0.731	0.574	0.559	0.219	0.188	0.179	0.19	0.19	1.05	1.3	1.15	0.978	0.909	0.899	0.884	0.895	0.847	0.596
SW 1573	0.99	1.01	0.925	0.887	0.85	0.643	0.572	0.465	0.472	0.47	0.858	0.855	0.688	0.753	0.494	0.917	0.866	0.88	0.867	1.02
NCI-H1975	0.312	0.325	0.316	0.291	0.308	1.03	1.04	0.94	0.814	0.665	0.686	0.62	0.719	0.585	0.665	1.1	1.16	0.988	1.02	1.01
NCI-H650	1.05	1.04	1.04	0.944	0.868	0.399	0.524	0.403	0.427	0.412	1.12	1.57	1.21	1.32	1.19	1.05	1.08	1.11	1.08	1.11
LC-2-ad	0.286	0.276	0.264	0.263	0.273	0.853	0.794	0.826	0.783	0.679	0.798	0.707	0.769	0.81	0.788	1	1.03	0.914	0.854	0.868
NCI-H2023	0.322	0.221	0.302	0.257	0.221	0.751	0.52	0.479	0.493	0.475	0.659	0.781	0.536	0.562	0.536	0.857	0.892	1	0.847	0.65
NCI-H2228	0.364	0.35	0.346	0.301	0.302	0.642	0.862	0.8	0.658	0.59	0.842	0.619	0.773	0.567	0.698	1.07	1.1	0.941	0.773	0.793
HCC-78	0.901	0.976	0.933	0.883	0.851	0.786	0.948	0.632	0.67	0.712	0.299	0.358	0.347	0.269	0.321	0.588	0.523	0.542	0.492	0.54
RERF-LC-KJ	0.479	0.477	0.461	0.465	0.437	1.07	1.12	1.06	1	0.978	0.813	0.823	0.831	0.831	0.703	0.987	1.07	0.993	0.859	0.842
NCI-H358	0.168	0.197	0.18	0.172	0.168	0.704	0.559	0.655	0.596	0.562	0.938	0.908	0.872	0.711	0.777	0.7	0.866	0.737	0.598	0.665
SK-MES-1	1.08	1.07	1.05	0.878	0.892	0.905	0.772	0.88	0.667	0.646	0.992	0.948	0.741	0.892	0.457	0.92	0.808	1.03	0.666	0.619
NCI-H1437	0.336	0.346	0.329	0.301	0.298	0.804	0.743	0.696	0.667	0.543	1.22	1.25	0.921	0.894	0.849	1.42	1.41	1.27	1.23	1.11
HOP-62	0.344	0.359	0.329	0.312	0.29	0.411	0.502	0.211	0.564	0.371	1	0.908	0.971	0.94	0.889	1.29	1.2	1.17	0.948	0.996
HARA	0.227	0.203	0.226	0.257	0.244	0.852	0.958	0.869	0.501	0.834	0.914	0.783	0.929	0.782	0.567	1.1	1.39	0.863	0.867	0.77
NCI-H441	0.269	0.252	0.272	0.271	0.298	0.679	0.592	0.656	0.803	0.613	0.92	0.761	1.05	0.973	0.986	0.975	1.29	1.04	1.14	0.956

Cell Line	relative viability (Avagacestat + Pemetrexed; first compound 0.08 µM)	relative viability (Avagacestat + Pemetrexed; first compound 0.253 µM)	relative viability (Avagacestat + Pemetrexed; first compound 0.8 µM)	relative viability (Avagacestat + Pemetrexed; first compound 2.53 µM)	relative viability (Avagacestat + Pemetrexed; first compound 8 µM)	relative viability (Avagacestat + Olaparib; first compound 0.08 µM)	relative viability (Avagacestat + Olaparib; first compound 0.253 µM)	relative viability (Avagacestat + Olaparib; first compound 0.8 µM)	relative viability (Avagacestat + Olaparib; first compound 2.53 µM)	relative viability (Avagacestat + Olaparib; first compound 8 µM)	relative viability (Avagacestat + Alpelisib; first compound 0.08 µM)	relative viability (Avagacestat + Alpelisib; first compound 0.253 µM)	relative viability (Avagacestat + Alpelisib; first compound 0.8 µM)	relative viability (Avagacestat + Alpelisib; first compound 2.53 µM)	relative viability (Avagacestat + Alpelisib; first compound 8 µM)	relative viability (Avagacestat + Foretinib; first compound 0.08 µM)	relative viability (Avagacestat + Foretinib; first compound 0.253 µM)	relative viability (Avagacestat + Foretinib; first compound 0.8 µM)	relative viability (Avagacestat + Foretinib; first compound 2.53 µM)	relative viability (Avagacestat + Foretinib; first compound 8 µM)
NCI-H2405	1.15	1.17	1.12	1.01	1.03	0.976	0.911	0.978	0.778	0.826	0.717	0.742	0.735	0.583	0.625	1.04	1.03	0.998	0.938	0.927
NCI-H1993	0.826	0.542	0.686	0.684	0.504	1.28	1.1	1.17	1.17	0.836	0.756	0.691	0.693	0.752	0.727	0.924	0.885	0.973	0.763	0.787
NCI-H460	0.0657	0.0554	0.0635	0.0567	0.0624	0.549	0.565	0.532	0.385	0.36	0.724	0.538	0.688	0.472	0.357	1.02	1.4	1.05	0.827	0.885
A-427	1.07	1.09	1.22	1.04	1.07	0.832	0.778	0.83	0.684	0.751	1.14	1.2	1.1	1.07	1.14	1.37	1.18	1.12	1.11	1.08
LOU-NH91	0.389	0.344	0.431	0.427	0.336	0.964	0.983	0.966	0.914	0.926	0.712	0.724	0.779	0.608	0.738	0.925	0.916	0.974	0.886	0.893
HCC-15	0.227	0.22	0.232	0.212	0.194	0.755	0.887	0.862	0.77	0.674	1.01	1.05	0.93	0.861	0.802	1.14	1.16	1.15	0.958	1.01
NCI-H661	0.953	1.01	0.92	0.86	0.909	0.795	0.918	0.771	0.774	0.725	0.803	0.664	1.08	–	0.589	1.04	1.17	1.07	0.974	1.08
HCC-366	0.199	0.195	0.191	0.161	0.142	0.45	0.461	0.378	0.402	0.308	0.749	0.679	0.565	0.361	0.308	1.01	1.05	0.944	1.01	1.04
NCI-H1666	0.938	0.871	0.877	0.822	0.889	0.843	0.863	0.808	0.955	0.758	1.26	0.982	1.32	1.03	1.1	1.32	1.15	1.16	1.07	1.07
NCI-H1915	0.521	0.573	0.537	0.5	0.52	0.264	0.28	0.257	0.249	0.227	1.03	1.12	1.04	1.03	1.02	1.21	1.26	1.21	1.06	1.03
NCI-H2085	0.856	0.871	1.04	0.902	0.861	0.823	0.833	0.847	0.825	0.8	1.15	1.07	1.08	1	1.05	1.25	1.09	1.06	1.11	0.911
COR-L 105	1.2	1.21	1.12	0.983	1.02	0.724	0.664	0.845	0.601	0.565	1.14	0.917	0.976	0.679	0.612	1.17	1.25	1.36	0.927	0.698
NCI-H1755	0.541	0.478	0.383	0.372	0.383	0.894	0.957	0.901	0.914	0.884	1.24	1.1	1.05	0.939	0.777	0.951	0.921	1	0.847	0.849
NCI-H322M	0.621	0.619	0.632	0.608	0.569	0.827	0.774	0.783	0.685	0.668	0.762	0.787	0.904	0.633	0.54	0.969	0.935	1.04	0.728	0.774
CAL-12T	1.7	1.49	1.67	1.42	1.25	0.73	0.715	0.773	0.782	0.83	1.39	1.74	1.27	1.17	1.24	1.35	1.25	1.24	1.02	1.16
HCC-827	0.304	0.271	0.296	0.221	0.257	0.724	0.734	0.687	0.607	0.656	1.04	0.984	1.05	0.874	0.972	1.08	1.12	1.15	1	1.03
